Source: patent US12600709B2, “Nonpeptide somatostatin type 5 receptor agonists and uses thereof” (Crinetics Pharmaceuticals, Inc., priority 2019, dated 2026)
Read-outs that look alike come from different tables or passages of the source.

Molecular target: T1, human somatostatin receptor subtype 5 (Homo sapiens, UniProt P35346)
T1 construct: expressed in transfected cells
Assay: cAMP assay for SST5R (inhibition of cAMP in CHO-K1 cells)
Assay type: cell-based
Settings: inhibition of cAMP via human SST5 receptor, read-out: SST5 potency
How it was run: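 CHO-K1 cells stably expressing human SSTR5 were treated 20 min at 37 °C with compounds plus 1.6 μM NKH477 in HBSS, 0.5 mM HEPES pH 7.4, 0.1% BSA, 0.2 mM IBMX. Lysate cAMP measured by HTRF against a standard curve; EC50 from cAMP-versus-concentration plots.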

T1 sequence (P35346 whole entry): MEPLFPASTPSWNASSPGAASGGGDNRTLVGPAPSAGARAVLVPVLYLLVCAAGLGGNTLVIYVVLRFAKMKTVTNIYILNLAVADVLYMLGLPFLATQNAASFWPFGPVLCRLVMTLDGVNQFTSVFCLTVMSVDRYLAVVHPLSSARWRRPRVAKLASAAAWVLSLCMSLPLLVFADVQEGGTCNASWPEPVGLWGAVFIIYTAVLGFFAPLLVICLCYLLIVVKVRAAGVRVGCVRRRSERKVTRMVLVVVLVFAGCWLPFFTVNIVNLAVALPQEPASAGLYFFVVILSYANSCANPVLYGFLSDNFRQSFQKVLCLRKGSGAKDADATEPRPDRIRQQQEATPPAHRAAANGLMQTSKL

Row | Compound | EC50 (Table A) | EC50 (Table B)
1 | C[C@H](NC(=O)c1cncc(-c2nc3c(F)cccc3[nH]2)c1N1CC[C@](C)(N)C1)C(F)(F)F [2-24, 4-[(3S)-3-amino-3-methylpyrrolidin-1-yl]-5-(4-fluoro-1H-1,3-benzodiazol-2-yl)-N-[(2S)-1,1,1-trifluoropropan-2-yl]pyridine-3-carboxamide] | < 10 nM | 
2 | Cc1ncc(C(=O)NC2CC(F)(F)C2)c(N2CC[C@](C)(N)C2)c1-c1cc(F)cc(F)c1 [1-146, 4-[(3S)-3-amino-3-methylpyrrolidin-1-yl]-N-(3,3-difluorocyclobutyl)-5-(3,5-difluorophenyl)-6-methylpyridine-3-carboxamide] | < 10 nM | 
3 | Cc1cccc2[nH]c(-c3cncc(C(=O)NC(C)C4CC4)c3N3CC[C@](C)(N)C3)nc12 (stereo partly drawn) [2-14, 4-[(3S)-3-amino-3-methylpyrrolidin-1-yl]-N-(1-cyclopropylethyl)-5-(4-methyl-1H-1,3-benzodiazol-2-yl)pyridine-3-carboxamide] | < 10 nM | 
4 | N[C@H]1CCN(c2c(C(=O)NC3CCC(F)(F)CC3)cnc(OCCCC(=O)O)c2-c2cc(F)cc(F)c2)C1 [1-205, 4-({4-[(3S)-3-aminopyrrolidin-1-yl]-5-[(4,4-difluorocyclohexyl)carbamoyl]-3-(3,5-difluorophenyl)pyridin-2-yl}oxy)butanoic acid] | < 10 nM | 
5 | C[C@]1(N)CCN(c2c(C(=O)NC3CCC(F)(F)CC3)cnc(C3CC3)c2-c2cc(F)cc(F)c2)C1 [1-281, 4-[(3S)-3-amino-3-methylpyrrolidin-1-yl]-6-cyclopropyl-N-(4,4-difluorocyclohexyl)-5-(3,5-difluorophenyl)pyridine-3-carboxamide] | < 10 nM | 
6 | Cc1cccc2[nH]c(-c3cncc(C(=O)NCC4CCC4)c3N3CC[C@](C)(N)C3)nc12 [2-31, 4-[(3S)-3-amino-3-methylpyrrolidin-1-yl]-N-(cyclobutylmethyl)-5-(4-methyl-1H-1,3-benzodiazol-2-yl)pyridine-3-carboxamide] | < 10 nM | 
7 | C[C@H](NC(=O)c1cnc(C#N)c(-c2cc(F)cc(F)c2)c1N1CC[C@@](N)(CC(F)F)C1)C1CC1 (single isomer, unassigned) [1-119] | 100 to 1000 nM | 
8 | CC[C@H](NC(=O)c1cncc(-c2nc3c(C)cccc3[nH]2)c1N1CC[C@](C)(N)C1)C(F)(F)F [2-40, 4-[(3S)-3-amino-3-methylpyrrolidin-1-yl]-5-(4-methyl-1H-1,3-benzodiazol-2-yl)-N-[(2S)-1,1,1-trifluorobutan-2-yl]pyridine-3-carboxamide] | < 10 nM | 
9 | C[C@H](NC(=O)c1cnc(C2CC2)c(-c2cc(F)cc(F)c2)c1N1CC[C@](C)(N)C1)C(F)(F)F [1-290, 4-[(3S)-3-amino-3-methylpyrrolidin-1-yl]-6-cyclopropyl-5-(3,5-difluorophenyl)-N-[(2S)-1,1,1-trifluoropropan-2-yl]pyridine-3-carboxamide] | < 10 nM | 
10 | C[C@H](NC(=O)c1cnc(OCC(F)(F)F)c(-c2cc(F)cc(F)c2)c1N1CC[C@](C)(N)C1)C1CC1 [1-190, 4-[(3S)-3-amino-3-methylpyrrolidin-1-yl]-N-[(1S)-1-cyclopropylethyl]-5-(3,5-difluorophenyl)-6-(2,2,2-trifluoroethoxy)pyridine-3-carboxamide] | < 10 nM | 
11 | C[C@]1(N)CCN(c2c(C(=O)NC3CCC(F)(F)CC3)cnc(C(F)(F)F)c2-c2cc(F)cc(F)c2)C1 [1-211, 4-[(3S)-3-amino-3-methylpyrrolidin-1-yl]-N-(4,4-difluorocyclohexyl)-5-(3,5-difluorophenyl)-6-(trifluoromethyl)pyridine-3-carboxamide] | < 10 nM | 
12 | CC(N)C1CN(c2c(C(=O)NC34CC(C3)C4)cncc2-c2cc(F)cc(F)c2)C1 (centres unmarked) [1-63, 4-[3-(1-aminoethyl)azetidin-1-yl]-N-{bicyclo[1.1.1]pentan-1-yl}-5-(3,5-difluorophenyl)pyridine-3-carboxamide] | 10 to 100 nM | 
13 | Cc1cccc2[nH]c(-c3cncc(C(=O)Nc4ccccc4)c3N3CC[C@](C)(N)C3)nc12 [2-6, 4-[(3S)-3-amino-3-methylpyrrolidin-1-yl]-5-(4-methyl-1H-1,3-benzodiazol-2-yl)-N-phenylpyridine-3-carboxamide] | < 10 nM | 
14 | Cc1cccc2[nH]c(-c3cncc(C(=O)NCC4CC4)c3N3CC[C@](C)(N)C3)nc12 [2-13, 4-[(3S)-3-amino-3-methylpyrrolidin-1-yl]-N-(cyclopropylmethyl)-5-(4-methyl-1H-1,3-benzodiazol-2-yl)pyridine-3-carboxamide] | < 10 nM | 
15 | N[C@H]1CCN(c2c(C(=O)NC3CCC(F)(F)CC3)cnc(OCCC(=O)O)c2-c2cc(F)cc(F)c2)C1 [1-204, 3-({4-[(3S)-3-aminopyrrolidin-1-yl]-5-[(4,4-difluorocyclohexyl)carbamoyl]-3-(3,5-difluorophenyl)pyridin-2-yl}oxy)propanoic acid] | > 1000 nM | 
16 | COc1ncc(C(=O)N[C@@H](C)c2ccccn2)c(N2CC[C@](C)(N)C2)c1-c1cc(F)cc(OC(F)F)c1 [1-241, 4-[(3S)-3-amino-3-methylpyrrolidin-1-yl]-5-[3-(difluoromethoxy)-5-fluorophenyl]-6-methoxy-N-[(1S)-1-(pyridin-2-yl)ethyl]pyridine-3-carboxamide] | 10 to 100 nM | 10 to 100 nM

Row | Compound | EC50 (Table A) | EC50 (Table B)
17 | Cc1cccc2[nH]c(-c3cncc(C(=O)N4CCC(C)(C)C4)c3N3CC[C@](C)(N)C3)nc12 [2-19, (3S)-1-[3-(3,3-dimethylpyrrolidine-1-carbonyl)-5-(4-methyl-1H-1,3-benzodiazol-2-yl)pyridin-4-yl]-3-methylpyrrolidin-3-amine] | < 10 nM | 
18 | CC1(C)CC1CNC(=O)c1cncc(-c2cc(F)cc(F)c2)c1N1CC[C@](C)(N)C1 (stereo partly drawn) [1-43, 4-[(3S)-3-amino-3-methylpyrrolidin-1-yl]-5-(3,5-difluorophenyl)-N-[(2,2-dimethylcyclopropyl)methyl]pyridine-3-carboxamide] | < 10 nM | 
19 | Cc1ncc(C(=O)N[C@@H](C)c2ccccn2)c(N2CC[C@](C)(N)C2)c1-c1cc(F)cc(Cl)c1 [1-243, 4-[(3S)-3-amino-3-methylpyrrolidin-1-yl]-5-(3-chloro-5-fluorophenyl)-6-methyl-N-[(1S)-1-(pyridin-2-yl)ethyl]pyridine-3-carboxamide] | < 10 nM | 
20 | C[C@H](NC(=O)c1cnc(C#N)c(-c2cc(F)cc(F)c2)c1N1CC[C@H](N)C1)c1ccccc1 [1-97, 4-[(3S)-3-aminopyrrolidin-1-yl]-6-cyano-5-(3,5-difluorophenyl)-N-[(1S)-1-phenylethyl]pyridine-3-carboxamide] | < 10 nM | 
21 | C[C@H](NC(=O)c1ccnc(-c2cc(F)cc(F)c2)c1N1CC[C@](C)(N)C1)C1CC1 [3-1, 3-[(3S)-3-amino-3-methylpyrrolidin-1-yl]-N-[(1S)-1-cyclopropylethyl]-2-(3,5-difluorophenyl)pyridine-4-carboxamide] | 10 to 100 nM | 
22 | C[C@H](NC(=O)c1cncc(-c2cncc(F)c2)c1N1CC[C@](C)(N)C1)C1CC1 [1-142, 4-[(3S)-3-amino-3-methylpyrrolidin-1-yl]-N-[(1S)-1-cyclopropylethyl]-5′-fluoro-[3,3′-bipyridine]-5-carboxamide] | < 10 nM | 
23 | Cc1cccc2[nH]c(-c3cncc(C(=O)N(C)CC(F)(F)F)c3N3CC[C@](C)(N)C3)nc12 [2-10, 4-[(3S)-3-amino-3-methylpyrrolidin-1-yl]-N-methyl-5-(4-methyl-1H-1,3-benzodiazol-2-yl)-N-(2,2,2-trifluoroethyl)pyridine-3-carboxamide] | < 10 nM | 
24 | Cc1ncc(C(=O)NC(CO)C2CC2)c(N2CC[C@](C)(N)C2)c1-c1cc(F)cc(F)c1 (stereo partly drawn) [1-224, 4-[(3S)-3-amino-3-methylpyrrolidin-1-yl]-N-(1-cyclopropyl-2-hydroxyethyl)-5-(3,5-difluorophenyl)-6-methylpyridine-3-carboxamide] | 10 to 100 nM | 
25 | Cc1cccc2[nH]c(-c3cncc(C(=O)NC4CC4)c3N3CC[C@](C)(N)C3)nc12 [2-12, 4-[(3S)-3-amino-3-methylpyrrolidin-1-yl]-N-cyclopropyl-5-(4-methyl-1H-1,3-benzodiazol-2-yl)pyridine-3-carboxamide] | 10 to 100 nM | 
26 | COc1ncc(C(=O)N[C@@H](C)C2CC2)c(N2CC[C@H](N)C2)c1-c1cc(F)cc(F)c1 [1-152, 4-[(3S)-3-aminopyrrolidin-1-yl]-N-[(1S)-1-cyclopropylethyl]-5-(3,5-difluorophenyl)-6-methoxypyridine-3-carboxamide] | < 10 nM | 
27 | C[C@]1(N)CCN(c2c(C(=O)NC(C3CCC3)C(F)(F)F)cncc2-c2cc(F)cc(F)c2)C1 (stereo partly drawn) [1-56, 4-[(3S)-3-amino-3-methylpyrrolidin-1-yl]-N-(1-cyclobutyl-2,2,2-trifluoroethyl)-5-(3,5-difluorophenyl)pyridine-3-carboxamide] | < 10 nM | 
28 | COc1ncc(C(=O)N[C@H]2CCC(F)(F)C2)c(N2CC[C@](C)(N)C2)c1-c1cc(F)cc(F)c1 [1-145, 4-[(3S)-3-amino-3-methylpyrrolidin-1-yl]-N-[(1S)-3,3-difluorocyclopentyl]-5-(3,5-difluorophenyl)-6-methoxypyridine-3-carboxamide] | < 10 nM | 
29 | Cc1cc(F)cc(-c2cncc(C(=O)NC3C4CC5CC(C4)CC3C5)c2N2CC[C@](C)(N)C2)c1 (stereo partly drawn) [1-18, N-(adamantan-2-yl)-4-[(3S)-3-amino-3-methylpyrrolidin-1-yl]-5-(3-fluoro-5-methylphenyl)pyridine-3-carboxamide] | 10 to 100 nM | 
30 | COC[C@]1(N)CCN(c2c(C(=O)N[C@@H](C)C3CC3)cnc(C#N)c2-c2cc(F)cc(F)c2)C1 [1-117, 4-[(3S)-3-amino-3-(methoxymethyl)pyrrolidin-1-yl]-6-cyano-N-[(1S)-1-cyclopropylethyl]-5-(3,5-difluorophenyl)pyridine-3-carboxamide] | 100 to 1000 nM | 
31 | CCN(C)C(=O)c1cncc(-c2nc3c(C)cccc3[nH]2)c1N1CC[C@](C)(N)C1 [2-3, 4-[(3S)-3-amino-3-methylpyrrolidin-1-yl]-N-ethyl-N-methyl-5-(4-methyl-1H-1,3-benzodiazol-2-yl)pyridine-3-carboxamide] | 10 to 100 nM | 
